Columns and labels:
HIV protease = biological target: T1, HIV protease (Human immunodeficiency virus type 1 group M subtype B, UniProt P04585); assay: Recombinant HIV Protease HPLC Assay; type: biochemical; settings: Table IV; 37°, 30 min, pH 5.5
T1 construct: HIV protease was expressed in E. coli; made in house; host or cells: E. coli (plasmid pBRT1 prt+)
From the text: The procedure is based on the capacity of the test compound to inhibit enzymatic cleavage by HIV protease of a decapeptide (the substrate) having an amino acid sequence which includes a known HIV protease cleavage site of a HIV polyprotein; see H. G. Krausslich et al., Proc. Natl. Acad. Sci. USA, 86, 807 (1989). Details of this assay together with the results obtained for exemplified compounds of formula 1 are described in the examples hereinafter.
Recombinant HIV Protease HPLC Assay:
Enzyme: HIV protease was expressed in E. coli {construct pBRT1 prt^+, see W. G. Farmerie et al., Science, 236, 305 (1987)}, according to the following protocol:
E. coli cells containing the pBRT1 prt^+ plasmid were used to inoculate a seed culture media composed of Luria-Bertani Broth containing 100 μg/mL of ampicillin. Flasks were incubated at 37° under agitation for 17 h. Production flasks containing sterile M9 broth, supplemented with 100 μg/mL of ampicillin, were inoculated at a level of 1% (v/v) using the seed culture described above. Total volume in each production flask was 500 mL in a 2 L Erlenmeyer flask. Flasks were incubated at 37° under agitation until a cell concentration corresponding to an optical density ([…]) of 0.6 was reached (no dilution). This time span was routinely 3-4 h. Flasks were then supplemented with 5 mM isopropylthiogalactoside (IPTG, Research Organics, Cleveland, Ohio, USA) and incubation was continued until the cell concentration reached an optical density of 0.2 at 16-fold dilution. Flasks were then supplemented with 1 mM phenylmethylsulfonyl fluoride (PMSF) and rapidly chilled to 4°. The bacterial cells were recovered by centrifugation at 4°. The wet pellet was stored at -70°.
All steps below were performed at 4° unless otherwise indicated. Thawed cells were mixed with buffer A {50 mM tris(hydroxymethyl)[…] HCl (Tris-HCl, pH 7.4); 0.6 mM ethylenediaminetetraacetic acid (EDTA); 0.375M NaCl, 0.2% Nonidet P-40® (BDH Chemicals Ltd., Poole, UK); 1 mM PMSF}, at a ratio of one part cells to nine parts buffer A. Diatomaceous earth (Celite 545®, John Manville, Lompoc, Calif. USA) was added at a ratio of two parts to one part of wet cell weight. The resulting slurry was homogenized at high speed (ca. 20,000 rpm) on a Waring® industrial blender for 8×15 sec. pulses. Cell debris/Celite® was collected by centrifugation and the resulting pellet was extracted with 4.5 parts of buffer A to one part wet solids using the homogenization procedure described above. Supernatants from both homogenization steps were combined and soluble protein was precipitated by the addition of solid (NH4)2 SO4 to yield a final concentration of 75% saturation. This mixture was agitated for 60 min and the precipitate was recovered by centrifugation. The resulting pellet was suspended in buffer B {50 mM Tris-HCl, pH 8; 30 mM NaCl; 1 mM DL-dithiothreitol (DTT); 1 mM EDTA; 1 mM PMSF; 10% glycerol}, and dialyzed for 18 h against the same buffer.
An aliquot of the dialyzed extract containing 150 mg of the protein was loaded onto a Sephadex A25® anion exchange column (Pharmacia, Uppsala, Sweden) with bed dimensions of 70 cm length and 2.5 cm diameter. The sample was eluted isocratically with buffer B at a linear flow rate of 10 cm/h. Fractions containing HIV protease activity (see below for assay description) were combined, and soluble protein was precipitated by the addition of saturated aqueous (NH4)2 SO4 to yield a total (NH4)2 SO4 concentration of 85% saturation. Precipitated protein was removed by centrifugation and the resulting pellet was dissolved in buffer C {50 mM 2-(4-morpholino)ethanesulfonic acid (MES), pH 5.5; 150 mM NaCl; 1 mM DTT; 1 mM EDTA; 10% glycerol}. This preparation was dialyzed for 18 h against buffer C, and then frozen at -70°. All crude extracts were purified by chromatography in aliquots containing 150 mg of protein in the same manner as described above. […]

[1] = system: HIV (H9/HTLV-IIIB) in C8166 cells; assay: plaque assay: inhibition of syncytia formation in HIV-infected C8166 cells; type: cell-based; settings: Human immunodeficiency virus 1, IIIB, Table IV, 72 h, 50% inhibition of syncytia formation
From the text: Typical of such procedures are those described by S. Harada and N. Yamamoto, Jpn. J. Cancer Res. (Gann), 76, 432 (1985), and S. Harada et al., Science, 229, 563 (1985). An assay based on the latter procedures is described in the examples hereinafter.
The following protocol, used for screening antiviral effects of the compounds of formula 1, is adapted from a plaque assay utilizing HTLV-I transformed cells, previously reported by Harada et al., supra. HTLV-I transformed cells are used because of the rapidity with which HIV will replicate in the cells.
1. The test compound is dissolved in dimethylsulfoxide to a concentration of 5 mg/mL. The resultant solution can be stored at 4° until use.
2. The resultant solution is diluted in RPMI 1640 (Gibco Laboratories, St. Lawrence, Mass., USA) to four times (4×) the final concentration which is to be tested. Once diluted in RPMI 1640, the solution is used in the cell culture assay within 4 h.
3. The 4× solution (50 μL) is added to triplicate wells of a 96 well flat bottomed microtiter plate. RPMI (50 μL) also is added to control wells.
4. C8166 cells (5×10^4) in 50 μL of HEPES-buffered RPMI 1640 (pH=7.2), 10% heat inactivated fetal calf serum (FCS), […] gentamicin (complete media) are added to all wells.
5. Fifty times TCID50 of H9/HTLV-IIIB stock (stored in liquid nitrogen as cell culture supernatant in 50% FCS) in 100 μL of complete media is added to all wells. Infectious titer of virus stocks are as previously determined by end point dilution on C8166 cells. Titer of stocks are stable for 6-12 months when stored at -193°.
6. Microtiter plates are then placed on level shelves of a 37°, 5% CO2 humidified incubator for 72 h.
7. Plates are then removed and centers of syncytia are counted in each well by low power phase contrast light microscopy. […] Control wells should have between 25 and 75 centers of syncytia per well.
8. Percent inhibition of syncytia formation is calculated by the formula: [formula]
The concentration of the test compound which causes a 50% inhibition of syncytia formation, i.e. the EC50, is determined by using the technique of serial dilution of the working solution at step 3 and by using non-linear regression analysis (SAS® program) to graphically plot the observed percent inhibition of syncytia formation against the various concentrations of the test compound.

IC50 (HIV protease) [nM]	EC50 [1] [nM]	SMILES
6.3	150	CC(C)(C)NC(=O)[C@@H]1C[C@H](c2ccccc2)CCN1C[C@@H](O)[C@H](Cc1ccccc1)NC(=O)[C@H](CC(N)=O)NC(=O)OCc1ccccc1 [Table IV, entry 12]
4.1	40	CC(C)[C@H](NC(=O)OCc1ccccc1)C(=O)N[C@@H](Cc1ccccc1)[C@H](O)CN1CC[C@@H](Cc2ccccc2)C[C@H]1C(=O)NC(C)(C)C [Table IV, entry 13]
2.3	40	CC(C)[C@H](NC(=O)OCc1ccccc1)C(=O)N[C@@H](Cc1ccccc1)[C@H](O)CN1CC[C@@H](S(=O)(=O)c2ccccc2)C[C@H]1C(=O)NC(C)(C)C [Table IV, entry 14]
2.9	1270	CC(C)(C)NC(=O)[C@@H]1C[C@H](S(=O)(=O)c2ccccc2)CCN1C[C@@H](O)[C@H](Cc1ccccc1)NC(=O)[C@H](CC(N)=O)NC(=O)OCc1ccccc1 [Table IV, entry 15]
2.7	150	CC(C)[C@H](NC(=O)OCc1ccccc1)C(=O)N[C@@H](Cc1ccccc1)[C@H](O)CN1CC[C@@H](Oc2ccccc2)C[C@H]1C(=O)NC(C)(C)C [Table IV, entry 16]
2.5	42	CC(C)(C)NC(=O)[C@@H]1C[C@H](Oc2ccccc2)CCN1C[C@@H](O)[C@H](Cc1ccccc1)NC(=O)[C@H](CC(N)=O)NC(=O)OCc1ccccc1 [Table IV, entry 17]
1.8	56	CC(C)[C@H](NC(=O)OCc1ccccc1)C(=O)N[C@@H](Cc1ccccc1)[C@H](O)CN1CC[C@@H](Oc2ccccn2)C[C@H]1C(=O)NC(C)(C)C [Table IV, entry 18]
8	200	CC(C)[C@H](NC(=O)OCc1ccccc1)C(=O)N[C@@H](Cc1ccccc1)[C@H](O)CN1CC[C@@H](C2CCCCC2)C[C@H]1C(=O)NC(C)(C)C [Table IV, entry 19]
3.1	12	CC(C)[C@H](NC(=O)c1ccc2ccccc2n1)C(=O)N[C@@H](Cc1ccccc1)[C@H](O)CN1CC[C@@H](Sc2ccccc2)C[C@H]1C(=O)NC(C)(C)C [Table IV, entry 20, N-tert-butyl-1-{2(R)-hydroxy-4-phenyl-3(S)-{(N-(2-quinolinylcarbonyl)valyl}amino}butyl}-4(R)-(phenylthio)piperidine-2(S)-carboxamide]
5.4	15	CC(C)(C)NC(=O)[C@@H]1C[C@H](Oc2ccccc2)CCN1C[C@@H](O)[C@H](Cc1ccccc1)NC(=O)[C@H](CC(N)=O)NC(=O)c1ccc2ccccc2n1 [Table IV, entry 21, N-tert-butyl-1-{2(R)-hydroxy-4-phenyl-3(S)-{{N-(2-quinolinylcarbonyl)asparaginyl}amino}butyl}-4(R)-phenoxypiperidine-2(S)-carboxamide]
4.7	450	CC(C)(C)NC(=O)[C@@H]1C[C@H](S(=O)(=O)c2ccccc2)CCN1C[C@@H](O)[C@H](Cc1ccccc1)NC(=O)[C@H](CC(N)=O)NC(=O)c1ccc2ccccc2n1 [Table IV, entry 22, N-tert-butyl-1-{2(R)-hydroxy-4-phenyl-3(S)-{{N-(2-quinolinylcarbonyl)asparaginyl}amino}butyl}-4(R)-(phenylsulfonyl)piperidine-2(S)-carboxamide]
1.8	10	CC(C)(C)NC(=O)[C@@H]1C[C@H](Sc2ccccc2)CCN1C[C@@H](O)[C@H](Cc1ccccc1)NC(=O)[C@H](CC(N)=O)NC(=O)c1ccc2ccccc2n1 [Table IV, entry 23, N-tert-butyl-1-{2(R)-hydroxy-4-phenyl-3(S)-{{N-(2-quinolinylcarbonyl)asparaginyl}amino}butyl}-4(R)-(phenylthio)piperidine-2(S)-carboxamide]
2.3	16	CC(C)[C@H](NC(=O)c1ccc2ccccc2c1)C(=O)N[C@@H](Cc1ccccc1)[C@H](O)CN1CC[C@@H](Sc2ccccc2)C[C@H]1C(=O)NC(C)(C)C [Table IV, entry 24, N-tert-butyl-1-{2(R)-hydroxy-4-phenyl-3(S)-{{N-(2-naphthalenylcarbonyl)valyl}amino}butyl}-4(R)-(phenylthio)piperidine-2(S)-carboxamide]
1.9	33	CC(C)(C)NC(=O)[C@@H]1C[C@H](Sc2ccccc2)CCN1C[C@@H](O)[C@H](Cc1ccccc1)NC(=O)[C@H](CC(N)=O)NC(=O)c1ccc2ccccc2c1 [Table IV, entry 25, N-tert-butyl-1-{2(R)-hydroxy-3(S)-{{N-(2-naphthalenylcarbonyl)asparaginyl}amino}-4-phenylbutyl}-4(R)-(phenylthio)piperidine-2(S)-carboxamide]
3.5	24	CC(C)[C@H](NC(=O)OCc1ccccc1)C(=O)N[C@@H](Cc1ccc(F)cc1)[C@H](O)CN1CC[C@@H](Sc2ccccc2)C[C@H]1C(=O)NC(C)(C)C [Table IV, entry 26, N-tert-butyl-1-{3(S)-{{N-(benzyloxycarbonyl)valyl}amino}-2(R)-hydroxy-4-(4-fluorophenyl)butyl}-4(R)-(phenylthio)piperidine-2(S)-carboxamide]
4.9	500	CC[C@H](C)[C@H](NC(=O)OCc1ccccn1)C(=O)N[C@@H](Cc1ccccc1)[C@H](O)CN1CC[C@@H](c2ccccc2)C[C@H]1C(=O)NC(C)(C)C [Table IV, entry 27, N-tert-butyl-1-{2(R)-hydroxy-4-phenyl-3(S)-{{N-{(2-pyridinylmethoxy)carbonyl}isoleucyl}amino}butyl}-4(R)-phenylpiperidine-2(S)-carboxamide]
16	500	CC(C)(C)NC(=O)[C@@H]1C[C@H](Sc2ccccn2)CCN1C[C@@H](O)[C@H](Cc1ccccc1)NC(=O)OCc1ccccc1 [Table IV, entry 28]

— patent publication US5614533A, “Substituted pipecolinic acid derivatives as HIV protease inhibitors” (Bio-Mega/Boehringer Ingelheim Research, Inc., priority 1994, dated 1997)
